Laboratory results from article PMC6278467, “Isolation and Identification of Potent Antidiabetic Compounds from Antrodia cinnamomea—An Edible Taiwanese Mushroom” (Molecules, 2018).
In brackets after ≈: the same amount, converted by molar mass.

Biological target: T1, Saccharomyces cerevisiae α-glucosidase
T1 construct: gene MAL12; commercial enzyme from Sigma Chemical Co
Experiment: pNPG hydrolysis, absorbance at […] nm
Format: biochemical
Conditions: p-NPG (10 mmol/L stock, 50 μL), 0.1 mol/L potassium phosphate pH 7, 37 °C, 20 min preincubation

[1] = value lies below the stated tested range (0.02-0.25, unit printed as μg/mL in footnote)

C=C(CC[C@@H](C)[C@H]1CC[C@H]2C3=C(C(=O)C[C@]12C)[C@@]1(C)CC[C@@H](O)[C@](C)(O)[C@@H]1C[C@@H]3O)[C@@H](C)C(=O)O [compound 2, 25R-antcin K]
EC50: 54 ± 0.4 µg/mL (≈ 111 µM)

C=C(CC[C@@H](C(=O)O)[C@H]1CC[C@@]2(C)C3=C(CC[C@]12C)[C@@]1(C)CC[C@H](O)C(C)(C)[C@@H]1CC3)C(C)C [compound 8, eburicoic acid]
EC50 [1]: 12 ± 0.4 µg/mL (≈ 25.5 µM)

C=C(CC[C@@H](C)[C@H]1CC[C@H]2C3=C(C(=O)C[C@]12C)[C@@]1(C)CCC(=O)[C@@H](C)[C@@H]1CC3=O)[C@H](C)C(=O)O [compound 5, 25S-antcin B]
EC50: 210 ± 7.6 µg/mL (≈ 448 µM)

C=C(CC[C@@H](C(=O)O)[C@H]1CC[C@@]2(C)C3=CC[C@H]4C(C)(C)[C@@H](O)CC[C@]4(C)C3=CC[C@]12C)C(C)C [compound 7, dehydroeburicoic acid]
EC50 [1]: 18 ± 0.2 µg/mL (≈ 38.4 µM)
